Data published in patent US8188059B2, “Compounds and methods for modulating expression of GCGR” (Isis Pharmaceuticals, Inc., priority 2006, dated 2012).
Strand notation (5' to 3'): a small letter for the sugar, then the base; units joined by * are phosphorothioate-linked, units joined directly phosphodiester-linked; [ ] holds rarer units or linkages, { } end groups; capitals alone tell only the bases. e = 2'-O-(2-methoxyethyl) (MOE); k = constrained ethyl (cEt); [5mC] = 5-methylcytosine; d = 2'-deoxy (DNA)

What was measured:
[1] = tested on: GCGR mRNA; test: Antisense inhibition of GCGR in HepG2 cells, 25-200 nM (Example 21, Table 79); format: cell-based, human; settings: for percent reduction in GCGR mRNA: HepG2 cells, relative to untreated control cells
Protocol: Short antisense compounds targeted to a GCGR nucleic acid were tested for their effects on GCGR mRNA in vitro.
Cultured HepG2 cells at a density of 10000 cells per well in a 96-well plate were treated as described herein with 25, 50, 100 or 200 nM of antisense oligonucleotide. After the treatment period, RNA was isolated from the cells and GCGR mRNA levels were measured by quantitative real-time PCR, as described herein. GCGR mRNA levels were adjusted according to total RNA content as measured by RIBOGREEN®. Results are presented as percent reduction in GCGR mRNA, relative to untreated control cells.

[2] = tested on: monkey GCGR mRNA; test: Antisense inhibition of GCGR in primary monkey hepatocytes, 25-200 nM (Example 21, Table 80); format: cell-based; settings: relative to untreated control cells
Protocol: Additional short antisense compounds targeted to a GCGR nucleic acid were tested for their effects on monkey GCGR mRNA in vitro. Cultured primary monkey hepatocytes were treated as described herein with 25, 50, 100 or 200 nM of short antisense compound. After the treatment period, RNA was isolated from the cells and GCGR mRNA levels were measured by quantitative real-time PCR, as described herein. GCGR mRNA levels were adjusted according to total RNA content as measured by RIBOGREEN®. Results are presented in Table 80 as percent reduction in GCGR mRNA, relative to untreated control cells.

[3] = tested on: PTP1B mRNA; test: Antisense inhibition of human PTP1B in HuVEC cells at 3 nM (Example 23, Table 84); format: cell-based
Protocol: Short antisense compounds targeted to a PTP1B nucleic acid were tested for their effects on PTP1B mRNA in vitro. Cultured HuVEC cells at a density of 5000 cells per well in a 96-well plate were treated as described herein with 3 nM of short antisense compound. After the treatment period, RNA was isolated from the cells and PTP1B mRNA levels were measured by quantitative real-time PCR, as described herein. PTP1B mRNA levels were adjusted according to total RNA content as measured by RIBOGREEN®. Results are presented as percent inhibition of PTP1B (% Inhib), relative to untreated control cells.

[4] = tested on: PTP1B mRNA; test: Antisense inhibition of human PTP1B in HepG2 cells at 25 nM (Example 24, Table 85); format: cell-based
Protocol: Short antisense compounds targeted to a PTP1B nucleic acid were tested for their effects on PTP1B mRNA in vitro. Cultured HepG2 cells at a density of 10000 cells per well in a 96-well plate were treated with 25 nM of antisense oligonucleotide. After the treatment period, RNA was isolated from the cells and PTP1B mRNA levels were measured by quantitative real-time PCR, as described herein. PTP1B mRNA levels were adjusted according to total RNA content as measured by RIBOGREEN®. Results are presented as percent inhibition (% Ihib) of PTP1B, relative to untreated control cells.

[5] = tested on: rat SGLT2 mRNA; test: Rat SGLT2 mRNA levels in kidney, 1-10-1 gapmers at 250 nmol/kg, Sprague-Dawley rats (Example 14, Table 66); format: in vivo; settings: 250 nmol/kg i.p. twice per week for three weeks; Sprague-Dawley rats; kidney
Protocol: The effect of the above 1-10-1gapmers (see Table 64 above) on rat SGLT2 mRNA levels. Data are taken from four experiments in which male Sprague-Dawley rats (170-200 g) were dosed twice per week for three weeks with 250 nmol/kg given by intraperitoneal injection. Rats were sacrificed 48 hours following last administration and evaluated for SGLT2 mRNA levels in kidney. Target levels were determined by RT, real-time PCR as described by other examples herein. PCR results were normalized to an internal ISIS control.

[6] = tested on: mouse SGLT2 mRNA; test: Mouse SGLT2 mRNA levels in kidney, additional 1-10-1 and 2-8-2 MOE gapmers, Balb/c mice (Example 15, Table 68); format: in vivo
[7] = tested on: rat SGLT2 mRNA; test: Rat SGLT2 mRNA levels in kidney, 1-10-1 and 1-10-2 MOE gapmers, Sprague-Dawley rats (Example 13, Table 63); format: in vivo
From the text: 1-10-1 and 1-10-2 MOE gapmer antisense compounds, provided in Table 62, were designed to target different regions of the mouse or rat SGLT2 RNA. All short antisense compounds in Table 62 are chimeric oligonucleotides (“gapmers”) either 12 or 13 nucleotides in length, composed of a central “gap” segment consisting of ten 2′-deoxynucleotides, which are flanked on the 5′ side by a one-nucleoside “wing” and on the 3′ side by a two or one-nucleotide “wing”. […] All cytidine residues are 5-methylcytidines.
The short antisense compounds were analyzed for their effect on rat SGLT2 mRNA levels. Data are ranges taken from three experiments in which Male Sprague-Dawley rats (170-200 g) were dosed twice per week for three weeks with 450, 150 or 50 nmol/kg of either a 1-10-1 or 1-10-2 MOE gapmer given by intraperitoneal injection. Rats were sacrificed 48 hours following last administration and evaluated for SGLT2 mRNA levels in kidney. Target levels were determined by RT, real-time PCR as described by other examples herein. PCR results were normalized to an internal ISIS control.

[8] = tested on: mouse SGLT2 mRNA; test: Mouse SGLT2 mRNA levels in kidney, 1-10-1 MOE gapmers, Balb/c mice (Example 14, Table 65); format: in vivo
Protocol: The short antisense compounds were analyzed for their effect on mouse SGLT2 mRNA levels. Data was taken from three experiments in which Male 6-week old Balb/c mice were dosed twice per week for two weeks with 450, 150, or 50 nmol/kg of one of the above 1-10-1 MOE gapmers given by intraperitoneal injection. Mice were sacrificed 48 hours following last administration and evaluated for SGLT2 mRNA levels in kidney. Target levels were determined by RT, real-time PCR as described by other examples herein. PCR results were normalized to an internal ISIS control.

[9] = tested on: rat SGLT2 mRNA; test: Rat SGLT2 mRNA levels in kidney, ISIS 379692 and ISIS 388625, Sprague-Dawley rats (Example 15, Table 70); format: in vivo; settings: i.p. twice per week for three weeks
Protocol: The effect of ISIS 379692 1-10-1 MOE gapmer and ISIS 388625 MOE 2-8-2 gapmer (see Table 70) on rat SGLT2 mRNA levels in vivo. […] Rats were sacrificed 48 hours following last administration and evaluated for SGLT2 levels in kidney. Target levels were determined by RT, real-time PCR as described by other examples herein. PCR results were normalized to an internal ISIS control.

[10] = tested on: mouse SGLT2 mRNA; test: Mouse SGLT2 mRNA levels in kidney, MOE versus Methyleneoxy BNA gapmers, Balb/c mice (Example 15, Table 69); format: in vivo
Protocol: The effect of ISIS 379692 1-10-1 MOE gapmer and ISIS 388625 2-8-2 MOE gapmer are compared with the effect of ISIS 392170 1-10-1 Methyleneoxy BNA Gapmer and ISIS 392173 2-8-2 Methyleneoxy BNA Gapmer (see Table 69) on mouse SGLT2 mRNA levels in vivo. Data are taken from three experiments in which male 6-week old Balb/c mice were dosed twice per week for three weeks with 5, 25 and 125 nmol/kg of either the ISIS 379692 1-10-1 MOE gapmer or the ISIS 388625 2-8-2 MOE gapmer given by intraperitoneal injection. Mice were sacrificed 48 hours following last administration and evaluated for SGLT2 mRNA levels in kidney. Target levels were determined by RT, real-time PCR as described by other examples herein. PCR results were normalized to an internal ISIS control. The data are expressed as percent change (“+” indicates an increase, “−” indicates a decrease) relative to saline treated animals and are illustrated in Table 69.

[11] = tested on: ApoB mRNA; test: ApoB mRNA in liver of Balb/c mice, single i.p. dose 8, 4, 2 or 1 μmol/kg, with ED50 (Example 28, Table 92); format: in vivo, mouse; settings: ApoB mRNA in liver, single i.p. administration
Protocol: The short antisense compounds tested were ISIS 387462 and ISIS 398296. Each dose group consisted of four animals. A 5-10-5 MOE gapmer was used for a control treatment. Mice were sacrificed approximately 48 hours following the final dose. Liver tissue was collected for RNA isolation, and blood was collected for serum chemistry analyses. ApoB mRNA levels were measured by real-time PCR as described herein. ApoB mRNA levels were normalized to RNA levels as determined by RIBOGREEN, and are presented in Table 92 as percent inhibition relative to ApoB mRNA levels in saline-treated control animals.
At the 8 umol/kg dose, ApoB inhibition by the short antisense compounds was greater than observed with a 5-10-5 MOE gapmer at an equivalent dose. […] Triglycerides were reduced at the highest dose.

[12] = 0.02 umol/kg i.p. twice per week for three weeks
[13] = 0.1 umol/kg i.p. twice per week for three weeks
[14] = 0.5 umol/kg i.p. twice per week for three weeks
[15] = 50 nmol/kg i.p. twice per week for three weeks
[16] = 150 nmol/kg i.p. twice per week for three weeks
[17] = 450 nmol/kg i.p. twice per week for three weeks
[18] = 50 nmol/kg i.p. twice per week for two weeks
[19] = 150 nmol/kg i.p. twice per week for two weeks
[20] = 450 nmol/kg i.p. twice per week for two weeks

Substance: 327161 (antisense eA*eG*e[5mC]*dT*dG*d[5mC]*dT*dG*dT*dA*d[5mC]*eA*eT*e[5mC]) [compound 327161]
- percent reduction in GCGR mRNA ([1]; 25 nM): −36
- percent reduction in GCGR mRNA ([1]; 50 nM): −30
- percent reduction in GCGR mRNA ([1]; 100 nM): −33
- percent reduction in GCGR mRNA ([1]; 200 nM): −64
- percent reduction in GCGR mRNA ([2]; 25 nM): −19
- percent reduction in GCGR mRNA ([2]; 50 nM): −33
- percent reduction in GCGR mRNA ([2]; 100 nM): −55
- percent reduction in GCGR mRNA ([2]; 200 nM): −54

Substance: 404137 (antisense e[5mC]*eA*dG*dT*dG*dT*dG*d[5mC]*dA*d[5mC]*dA*d[5mC]*eA*eG) [compound 404137]
- % Inhib (PTP1B mRNA) [3]: 76%
- % Inhib (PTP1B mRNA) [4]: 71%

Substance: 404138 (antisense e[5mC]*eT*d[5mC]*dA*dG*dT*dG*dT*dG*d[5mC]*dA*d[5mC]*eA*e[5mC]) [compound 404138]
- % Inhib (PTP1B mRNA) [3]: 76%
- % Inhib (PTP1B mRNA) [4]: 86%

Substance: 404139 (antisense eG*eT*dG*d[5mC]*dA*d[5mC]*dA*d[5mC]*dA*dG*d[5mC]*dT*eG*eA) [compound 404139]
- % Inhib (PTP1B mRNA) [3]: 80%
- % Inhib (PTP1B mRNA) [4]: 45%

Substance: 404140 (antisense eG*e[5mC]*dA*d[5mC]*dA*d[5mC]*dA*dG*d[5mC]*dT*dG*dA*eG*eG) [compound 404140]
- % Inhib (PTP1B mRNA) [3]: 73%
- % Inhib (PTP1B mRNA) [4]: 93%

Substance: ISIS 327161: GCGR; 3-10-3 MOE gapmer (antisense eA*eG*e[5mC]*dT*dG*d[5mC]*dT*dG*dT*dA*d[5mC]*eA*eT*e[5mC])
- GCGR mRNA ([1]; HepG2 cells, 25, 50, 100 or 200 nM): reduced GCGR mRNA in a dose-dependent manner

Substance: ISIS 379692: SGLT2; 1-10-1 MOE gapmer (antisense eT*dG*dT*dT*d[5mC]*d[5mC]*dA*dG*d[5mC]*d[5mC]*d[5mC]*eA)
- % change in SGLT2 expression relative to saline [5]: −85%
- % change in SGLT2 expression relative to saline [6, 12]: −55%
- % change in SGLT2 expression relative to saline [6, 13]: −75%
- % change in SGLT2 expression relative to saline [6, 14]: −85%
- % change in SGLT2 expression relative to saline [7, 15]: −80%
- % change in SGLT2 expression relative to saline [7, 16]: −85%
- % change in SGLT2 expression relative to saline [7, 17]: −90%
- % change in SGLT2 expression relative to saline [8, 18]: −52.5%
- % change in SGLT2 expression relative to saline [8, 19]: −70%
- % change in SGLT2 expression relative to saline [8, 20]: −80%
- % change in SGLT2 expression relative to saline ([9]; dose 3.125 umol/kg (head)): +30%
- % change in SGLT2 expression relative to saline ([9]; dose 12.5 umol/kg (head)): −15%
- % change in SGLT2 expression relative to saline ([9]; dose 50 umol/kg (head)): −65%
- % change in SGLT2 expression relative to saline ([9]; dose 200 umol/kg (head)): −80%
- SGLT2 mRNA, percent change relative to saline treated animals ([10]; 5 nmol/kg i.p. twice per week for three weeks): −7 percent change
- SGLT2 mRNA, percent change relative to saline treated animals ([10]; 25 nmol/kg i.p. twice per week for three weeks): −46 percent change
- SGLT2 mRNA, percent change relative to saline treated animals ([10]; 125 nmol/kg i.p. twice per week for three weeks): −58 percent change

Substance: ISIS 379699: SGLT2; GGCATGAGCTTC 1-10-1 MOE (antisense eG*dG*d[5mC]*dA*dT*dG*dA*dG*d[5mC]*dT*dT*e[5mC])
- % change in SGLT2 expression relative to saline [5]: −75%
- % change in SGLT2 expression relative to saline [6, 12]: −30%
- % change in SGLT2 expression relative to saline [6, 13]: −60%
- % change in SGLT2 expression relative to saline [6, 14]: −75%
- % change in SGLT2 expression relative to saline [7, 15]: −60%
- % change in SGLT2 expression relative to saline [7, 16]: −75%
- % change in SGLT2 expression relative to saline [7, 17]: −83%
- % change in SGLT2 expression relative to saline [8, 18]: −42.5%
- % change in SGLT2 expression relative to saline [8, 19]: −62.5%
- % change in SGLT2 expression relative to saline [8, 20]: −80%

Substance: ISIS 398296: ApoB; GGTACATGGAAGTC 2-10-2 (6′S)-6′-methyl-Methyleneoxy BNA Unmodified Cytosines (antisense kG*kG*dT*dA*dC*dA*dT*dG*dG*dA*dA*dG*kT*kC)
- ED50 [11]: 8.7 mg/kg
